This is an account of results in patent US5200407A, “Azole derivatives and anti-ulcerative composition containing same” (Meiji Seika Kaburhiki Kaisha, priority 1989, dated 1993).

Data set [1] relates to ulceration. The data set is described as follows: Water-immersion, restraint stress ulcerogenic testing. The class given is in vivo, Wister male rats. As to conditions: one hour prior to stressing, water immersion restraint six hours, rats; for inhibition in vivo at 30 mg/kg: Rattus norvegicus, Table 1, suspended in 0.5% CMC. As for the experimental part: 1. Water-immersion, restraint stress ulcerogenic testing
Wister male rats (11-week age) fasted for 18 hours were placed in a restraint cage, which was in turn immersed to a depth of the pectoral region in water at 20° to 22° C. to leave the rats under stress for six hours. Then, the rats were drawn up from the water and put down by vertebral dislocation. Afterwards, the stomach was removed, infused with 50 ml of a 5% aqueous solution of formalin and was wholly immersed in the same solution for 30 minutes for fixation. The fixed sample was dissected along the curvatura ventriculi major, and the ulcerated regions were measured along their major length (in mm) by means of slide calipers. The total sum of the measurements per rat is a value of ulceration. The compounds under test, suspended in 0.5% carboxymethylcellulose (CMC), were administered to the rats at a single dose of 5 ml/kg body weight (corresponding to 30 mg/kg body weight of the compound) one hour prior to the stressing. To a control group, only 0.5% CMC was administrated at a dose of 5 ml/kg weight. The rate of depression of ulceration was calculated according to the following equation: [formula]

The nature of the next data set: Toxicity (LD50). As to conditions: mouse, in vivo; mice, oral. The source says: The compounds of the present invention are of low toxicity, as appreciated from Example Compound Nos. 79, 104 and 133 having up to 1 g/kg of LD50 value (mice, by an oral).
Data set [2] deals with ulceration. The data set is described as follows: Ethanol-induced ulceration. The class given is in vivo, Donryu masculine rats. To be noted: 30 mg/kg oral, in 0.5% CMC, one hour prior to 100% ethanol, rats; for % Ulceration Inhibition: Table 2. As for the experimental part:
2. Ethanol-induced ulceration
Five (5) ml/kg of 100% ethanol was orally administrated to Donryu masculine rats fasted for 48 hours and dehydrated for 24 hours. One hour later, the rats were put down in similar manners as mentioned above test to remove and treat the stomach. The compounds under test, suspended in 0.5% CMC, were orally administered to the rats at a dose of 5 ml/kg body weight (corresponding to 30 mg/kg body weight of that compound) one hour prior to the administration of ethanol.

A value given as a limit tells only on which side of the number the result lay.

“2-[(2-ureidoethyl)sulfinyl]thiazolo[5,4-b]pyridine [Example 146]”: in the data set with ulceration [1] (Table 1, 30 mg/kg, suspended in 0.5% CMC), the “% Ulceration Inhibition” value is 19%.

On to `CC1(C)CCCC(C)(C)N1CCSc1nc2ncccc2o1` [Example 47, 2-[(2-(2,2,6,6-tetramethylpiperidin-1-yl)ethyl)thio]oxazolo[4,5-b]pyridine], for which 30 mg/kg produced 99% inhibition in vivo in the data set on ulceration [1].

Regarding `CC1(C)CCCC(C)(C)N1CCSc1nc2cccnc2o1` [Example 48, 2-[(2-(2,2,6,6-tetramethylpiperidin-1-yl)ethyl)thio]oxazolo[5,4-b]pyridine], the inhibition in vivo – broadly, the relative decrease from the control value, in per cent – at 30 mg/kg in the data set with ulceration [1] came out at 99%.

Turning to `CC(C)N(CCSc1nc2ncccc2o1)C(C)C` [Example 51, 2-[(2-di-isopropylaminoethyl)thio]oxazolo[4,5-b]pyridine], testing at 30 mg/kg in the data set with ulceration [1] gave an inhibition in vivo of 88%.

As to `c1cnc2sc(SCCN3CCOCC3)nc2c1` [Example 65, 2-[(2-morpholinoethyl)thio]thiazolo[5,4-b]pyridine], in the data set with ulceration [1], the inhibition in vivo at 30 mg/kg came to 58%.

The compound `CN1CCCC1CCSc1nc2cccnc2s1` (stereo not shown) [Example 70, 2-[(2-(1-methylpyrrolidin-2-yl)ethyl)thio]thiazolo[5,4-b]pyridine] displayed an inhibition in vivo at 30 mg/kg with ulceration [1] of 42%.

For the compound `CCCCOC(=O)C[S+]([O-])c1nc2cccnc2s1` (stereo not shown) [Example 79, 2-[(n-butoxycarbonylmethyl)sulfinyl]thiazolo[5,4-b]pyridine], the inhibition in vivo at 30 mg/kg in the data set with ulceration [1] came out at 76%. Moreover, the LD50 – broadly, the dose expected to kill half of the subjects tested – in “Toxicity (LD50)” was at least 1000 mg/kg. The compound also registered a depression of erosion in the data set on ulceration [2] (control nearly 100% erosion) of 98%. Besides, the “% Ulceration Inhibition” value with ulceration [2] was determined as 98%.

Compound `C/C=C/COC(=O)C[S+]([O-])c1nc2cccnc2s1` (stereo not shown) [Example 84, 2-[(crotyloxycarbonylmethyl)sulfinyl]thiazolo[5,4-b]pyridine] had an inhibition in vivo at 30 mg/kg in the data set on ulceration [1] of 75%.

For `C=CCOC(=O)C[S+]([O-])c1nc2cccnc2s1` (stereo not shown) [Example 89, 2-[(allyloxvcarbonylmethyl)sulfinyl]thiazolo[5,4-b]pyridine], testing at 30 mg/kg in the data set on ulceration [1] gave an inhibition in vivo of 72%.

Regarding `COC(=O)C[S+]([O-])c1nc2cccnc2s1` (stereo not shown) [Example 93, 2-[(methoxycarbonylmethyl)sulfinyl]thiazolo[5,4-b]pyridine], in the data set on ulceration [1], testing at 30 mg/kg gave an inhibition in vivo of 73%.

Take `Cn1nnnc1CCCC[S+]([O-])c1nc2cccnc2s1` (stereo not shown) [Example 100, 2-[(4-(1-methyltetrazol-5-y1)butyl)sulfinyl]thiazolo[5,4-b]pyridine]: the inhibition in vivo at 30 mg/kg in the data set on ulceration [1] worked out at 95%.

In turn, `CC(C)COC(=O)C[S+]([O-])c1nc2cccnc2s1` (stereo not shown) [Example 101, 2-[(isobutoxycarbonylmethyl)sulfinyl]thiazolo[5,4-b]pyridine] returned an inhibition in vivo at 30 mg/kg in the data set with ulceration [1] of 75%.

Take `C[S+]([O-])c1nc2cccnc2s1` (stereo not shown) [Example 103, 2-methylsulfinylthiazolo[5,4-b]pyridine]: the inhibition in vivo at 30 mg/kg in the data set with ulceration [1] is 84%.

In the data set with ulceration [1], `CCOC(=O)C[S+]([O-])c1nc2ncccc2s1` (stereo not shown) [Example 104, 2-[(ethoxycarbonylmethyl)sulfinyl]thiazolo[4,5-b]pyridine] gave an inhibition in vivo at 30 mg/kg of 68%. In “Toxicity (LD50)”, this compound displayed an LD50 of at least 1000 mg/kg.

Take `CC(=O)OCC[S+]([O-])c1nc2cccnc2s1` (stereo not shown) [Example 110, 2-[(2-acetoxyethyl)sulfinyl]thiazolo[5,4-b]pyridine]: the inhibition in vivo at 30 mg/kg in the data set with ulceration [1] came to 79%.

Take `O=C(C[S+]([O-])c1nc2cccnc2s1)NC1CCCCC1` (stereo not shown) [Example 117, 2-[(N-cyclohexylcarbamoylmethyl)sulfinyl]thiazolo[5,4-b]pyridine]: the inhibition in vivo at 30 mg/kg in the data set with ulceration [1] stood at 77%.

In turn, `Cn1nnnc1C[S+]([O-])c1nc2cccnc2s1` (stereo not shown) [Example 120, 2-[((1-methyltetrazol-5-yl)methyl)sulfinyl]thiazolo[5,4-b]pyridine] displayed an inhibition in vivo at 30 mg/kg with ulceration [1] of 86%.

As for `CCOCC[S+]([O-])c1nc2cccnc2s1` (stereo not shown) [Example 121], in the data set with ulceration [1], the inhibition in vivo at 30 mg/kg is 67%.

Turning to `CCOCC[S+]([O-])c1nc2cc(Cl)cnc2s1` (stereo not shown) [Example 122], the inhibition in vivo at 30 mg/kg with ulceration [1] came to 13%.

In the data set on ulceration [1], `CCOCC[S+]([O-])c1nc2cnccc2s1` (stereo not shown) [Example 123, 2-[(2-ethoxymethyl)sulfinyl]thiazolo[4,5-c]pyridine] gave an inhibition in vivo at 30 mg/kg of 15%.

Regarding `CCOCC[S+]([O-])c1nc2cccnc2[nH]1` (stereo not shown) [Example 124], 30 mg/kg produced 25% inhibition in vivo with ulceration [1].

`[O-][S+](CCc1ccccn1)c1nc2cccnc2s1` (stereo not shown) [Example 125, 2-[2(pyridin-2-yl)-ethylsulfinyl]thiazolo[4,5-]pyridine] came in with an inhibition in vivo at 30 mg/kg in the data set on ulceration [1] of 44%.

For the compound `O=C1NCC(C[S+]([O-])c2nc3cccnc3s2)O1` (stereo not shown) [Example 126, 2-[(2-oxazolidion-5-yl)methylsulfinyl]thiazolo[5,4-b]pyridine], the inhibition in vivo at 30 mg/kg in the data set with ulceration [1] is 60%.

Consider `CC(C)=CC[S+]([O-])c1nc2cccnc2s1` (stereo not shown) [Example 127, 2-[(3-methyl-2-butenyl)sulfinyl]thiazolo[5,4-b]pyridine], for which 30 mg/kg produced 0% inhibition in vivo in the data set with ulceration [1].

With `CCOC(=O)C[S+]([O-])c1nc2cccnc2s1` (stereo not shown) [Example 128, 2-[(ethoxycarbonylmethyl)sulfinyl]thiazolo[5,4-b]pyridine], the inhibition in vivo at 30 mg/kg in the data set on ulceration [1] was 91%. Also, the “% Ulceration Inhibition” value in the data set with ulceration [2] turned out to be 99%.

`CC1(C)CCCC(C)(C)N1CC[S+]([O-])c1nc2cccnc2s1` (stereo not shown) [Example 129, 2-[{2-(2,2,6,6-tetramethylpiperidin-1-yl)ethyl)sulfinyl]thiazolo[5,4-b]pyridine] showed an inhibition in vivo at 30 mg/kg in the data set on ulceration [1] of 99%.

`CC(C)N(CC[S+]([O-])c1nc2cnccc2s1)C(C)C` (stereo not shown) [Example 130] gave an inhibition in vivo at 30 mg/kg in the data set on ulceration [1] of 76%.

`CC(C)N(CC[S+]([O-])c1nc2ncc(C(F)(F)F)cc2s1)C(C)C` (stereo not shown) [Example 131] displayed an inhibition in vivo at 30 mg/kg in the data set on ulceration [1] of 71%.

`CC1(C)CCCC(C)(C)N1CC[S+]([O-])c1nc2ncc(C(F)(F)F)cc2s1` (stereo not shown) [Example 133] returned an inhibition in vivo at 30 mg/kg in the data set with ulceration [1] of 98%. Further, in “Toxicity (LD50)”, the LD50 was at least 1000 mg/kg.

In the case of `NC(=O)C[S+]([O-])c1nc2cccnc2s1` (stereo not shown) [Example 135, 2-[(carbamoylmethyl)sulfinyl]thiazolo[5,4-b]pyridine], in the data set with ulceration [1], the inhibition in vivo at 30 mg/kg stood at 86%.

Regarding `CC(C)N(CC[S+]([O-])c1nc2ncccc2s1)C(C)C` (stereo not shown) [Example 136], the inhibition in vivo at 30 mg/kg with ulceration [1] amounted to 94%.

As to `[O-][S+](CCN1CCOCC1)c1nc2cccnc2s1` (stereo not shown) [Example 138], in the data set on ulceration [1], 30 mg/kg produced 68% inhibition in vivo. Moreover, in the data set on ulceration [2], the “% Ulceration Inhibition” value was determined as 97%.

On to `O=S(=O)(CCN1CCOCC1)c1nc2cccnc2s1` [Example 139], for which, in the data set on ulceration [1], the inhibition in vivo at 30 mg/kg worked out at 47%.

For `[O-][S+](CCN1CCOCC1)c1nc2cnccc2s1` (stereo not shown) [Example 140], in the data set with ulceration [1], the inhibition in vivo at 30 mg/kg turned out to be 58%.

On to `CCN(CC)CC[S+]([O-])c1nc2cccnc2s1` (stereo not shown) [Example 141], for which the inhibition in vivo at 30 mg/kg with ulceration [1] worked out at 41%.

With `[O-][S+](CCN1CCOCC1)c1nc2cc(Cl)cnc2s1` (stereo not shown) [Example 142], in the data set with ulceration [1], at 30 mg/kg the inhibition in vivo was 13%.

The compound `[O-][S+](CCN1CCOCC1)c1nc2ncccc2[nH]1` (stereo not shown) [Example 143, 2-[(2-morpholinoethyl)sulfinyl]imidazo[4,5-b]pyridine] displayed an inhibition in vivo at 30 mg/kg with ulceration [1] of 54%.

In the data set on ulceration [1], `CN1CCCC1CC[S+]([O-])c1nc2cccnc2s1` (stereo not shown) [Example 144, 2-[(2-(1-methylpyrrolidin-2-y1)ethyl)sulfinyl]thiazolo[5,4-b]pyridine] came in with an inhibition in vivo at 30 mg/kg of 85%.

`CN1CCCC1CCS(=O)(=O)c1nc2cccnc2s1` (stereo not shown) [Example 145, 2-[(2-(1-methylpyrrolidin-2-yl)ethyl)sulfonyl]thiazolo[5,4-b]pyridine] had an inhibition in vivo at 30 mg/kg with ulceration [1] of 68%.

`CN1CCCC(C[S+]([O-])c2nc3cccnc3s2)C1` (stereo not shown) [Example 147, 2-[(1-methylpiperidin-3-yl)methylsulfinyl]thiazolo[5,4-b]pyridine]: in the data set with ulceration [1], the inhibition in vivo at 30 mg/kg was determined as 64%.

Turning to `CN1CCC([S+]([O-])c2nc3cccnc3s2)CC1` (stereo not shown) [Example 148, 2-[(1-methylpiperidin-4-yl)sulfinyl]thiazolo[5,4-b]pyridine], in the data set with ulceration [1], 30 mg/kg produced 78% inhibition in vivo.

Turning to `CC(C)N(CC[S+]([O-])c1nc2cccnc2s1)C(C)C` (stereo not shown) [Example 149, 2-[(2-di-isopropylaminoethvl)sulfinyl]thiazolo[5,4-b]pyridine], the inhibition in vivo at 30 mg/kg in the data set on ulceration [1] turned out to be 99%. Besides, the “% Ulceration Inhibition” value in the data set with ulceration [2] was determined as 94%.

`CC(C)N(CCS(=O)(=O)c1nc2cccnc2s1)C(C)C` [Example 150, 2-[(2-di-isooropylaminoethyl)sulfonyl]thiazolo[5,4-b]pyridine] came in with an inhibition in vivo at 30 mg/kg in the data set on ulceration [1] of 61%.

The compound `CN1CCN(CCC[S+]([O-])c2nc3cccnc3s2)CC1` (stereo not shown) [Example 151, 2-[(3-(1-methylpiperazin-4-yl)propyl)sulfinyl]thiazolo[5,4-b]pyridine] showed an inhibition in vivo at 30 mg/kg with ulceration [1] of 39%.
